How the values were obtained:
Format in all cases: cell-based
[1] = test system: human hepatic stellate cells LX-2; experiment: Anti-fibrosis activity test: inhibition of proliferation of human hepatic stellate cells LX-2 (CCK-8); conditions: Homo sapiens, 48 h, human hepatic stellate cells LX-2, CCK-8, 48 hours
Description: (§1) BHK-21 cells in exponential growth phase were selected. After the fusion growth reached 85-95%, normal passage method was utilized to digest and collect the cells, followed by cell counting and adjusting the cell density to 2×10^4 cells/mL. The cells were seeded into 96-well plates, 100 μL/well, and were incubated under the condition of 5% CO2 at 37° C.
(§2) The supernatant was removed after the cells had adhered to the wall for 24 hours. The culture solution containing the prepared compounds at different concentrations were added to the wells, 100 μL/well, each concentration in triplicate. The cells were subcultured for 48 hours after administration. Commercially available pirfenidone was employed as the positive control.
(§3) 10 μL of CCK-8 solution ( 1/10 of the volume of the culture solution) was added to each well 48 hours after the administration, and incubated for 2 hours. The absorbance (A) of each well was determined by a microplate reader at 450 nm wavelength. The inhibition rate against cell proliferation for each compound was calculated based on A, wherein inhibition rate against cell proliferation (inhibition ratio, IR)=(1−value of experimental group (Ai)/value of blank control group (Ao))×100% and the IC50 value of each compound was calculated by the data processing software.
(§4) Using the same protocol for the cell experiments, the inhibitory activity of the test compounds against the proliferation of human lung fibroblasts HFL1, human hepatic stellate cells LX-2, human fibrosarcoma cells HT-1080, human dermal fibroblasts CCC-ESF-1, human embryonic lung fibroblast IMR-90, cardiac fibroblast RAT-iCell-C002 was assayed.

[2] = test system: human fibrosarcoma cells HT-1080; experiment: Anti-fibrosis activity test: inhibition of proliferation of human fibrosarcoma cells HT-1080 (CCK-8); conditions: Homo sapiens, HT-1080, 48 h, human fibrosarcoma cells HT-1080, CCK-8, 48 hours
Description: as §1, §2, §3, §4

[3] = test system: human dermal fibroblasts CCC-ESF-1; experiment: Anti-fibrosis activity test: inhibition of proliferation of human dermal fibroblasts CCC-ESF-1 (CCK-8); conditions: Fibroblast; human dermal fibroblasts CCC-ESF-1, CCK-8, 48 hours
Description: as §1, §2, §3, §4

[4] = test system: human embryonic lung fibroblast IMR-90; experiment: Anti-fibrosis activity test: inhibition of proliferation of human embryonic lung fibroblast IMR-90 (CCK-8); conditions: human embryonic lung fibroblast IMR-90, CCK-8, 48 hours
Description: as §1, §2, §3, §4

[5] = test system: human lung fibroblasts HFL1; experiment: Anti-fibrosis activity test: inhibition of proliferation of human lung fibroblasts HFL1 (CCK-8); conditions: Homo sapiens, HFL1, 48 h, human lung fibroblasts HFL1, CCK-8, 48 hours
Description: as §1, §2, §3, §4

BHK-21 cells = experiment: Anti-fibrosis activity test: inhibition of BHK-21 cell proliferation (CCK-8); conditions: Mesocricetus auratus, BHK-21, 48 h, CCK-8, 48 hours after administration
Description: as §1, §2, §3

[6] = test system: cardiac fibroblast RAT-iCell-C002; experiment: Anti-fibrosis activity test: inhibition of proliferation of cardiac fibroblast RAT-iCell-C002 (CCK-8); conditions: Cardiac fibroblast, 48 h, cardiac fibroblast RAT-iCell-C002, CCK-8, 48 hours
Description: as §1, §2, §3, §4

Structure (SMILES) | IC50 [1] [mM] | IC50 [2] [mM] | IC50 [3] [mM] | IC50 [4] [mM] | IC50 [5] [mM] | IC50 (BHK-21 cells) [mM] | IC50 [6] [mM]
O=C1c2c(n(Cc3ccc(C(F)(F)F)cc3)c3cc(N4CCNCC4)c(F)cc3c2=O)-c2cccn21 [Compound 636a, 7-Fluoro-6-(piperazin-1-yl)-4-(4-(trifluoromethyl)benzyl)-9H-pyrrolizino[1,2-b]quinoline-9,10(4H)-dione] | 0.05 to 5 | 0.05 to 5 | < 0.05 | 0.05 to 5 | 0.05 to 5 | 0.05 to 5 | 0.05 to 5
O=C1c2c(nc3cc(N4CCNCC4)c(F)cc3c2OCc2ccc(C(F)(F)F)cc2)-c2cccn21 [Compound 636b, 7-fluoro-6-(piperazin-1-yl)-9-((4-(trifluoromethyl)benzyl)oxy)-10H-pyrrolizino[1,2-b]quinolin-10-one] | 0.05 to 5 | 0.05 to 5 | 0.05 to 5 | 0.05 to 5 | 0.05 to 5 | 0.05 to 5 | 0.05 to 5
O=C1c2c(n(Cc3ccc(-c4ccccc4)cc3)c3cc(N4CCNCC4)c(F)cc3c2=O)-c2cccn21 [Compound 637a, 4-([1,1′-Biphenyl]-4-ylmethyl)-7-fluoro-6-(piperazin-1-yl)-9H-pyrrolizino[1,2-b]quinoline-9,10(4H)-dione] | 0.05 to 5 | 5 to 20 | 0.05 to 5 | 0.05 to 5 | 0.05 to 5 | < 0.05 | 0.05 to 5
O=C1c2c(nc3cc(N4CCNCC4)c(F)cc3c2OCc2ccc(-c3ccccc3)cc2)-c2cccn21 [Compound 637b, 9-([1,1′-biphenyl]-4-ylmethoxy)-7-fluoro-6-(piperazin-1-yl)-10H-pyrrolizino[1,2-b]quinolin-10-one] | 0.05 to 5 | 5 to 20 | 0.05 to 5 | 0.05 to 5 | 0.05 to 5 | 0.05 to 5 | 0.05 to 5
N#Cc1ccccc1-c1ccc(Cn2c3c(c(=O)c4cc(F)c(N5CCNCC5)cc42)C(=O)n2cccc2-3)cc1 [Compound 638a, 4′-((7-Fluoro-9,10-dioxo-6-(piperazin-1-yl)-9H-pyrrolizino[1,2-b]quinolin-4(10H)-yl)methyl)-[1,1′-biphenyl]-2-carbonitrile] | 0.05 to 5 | 0.05 to 5 | 0.05 to 5 | 0.05 to 5 | 0.05 to 5 | 0.05 to 5 | 0.05 to 5
N#Cc1ccccc1-c1ccc(COc2c3c(nc4cc(N5CCNCC5)c(F)cc24)-c2cccn2C3=O)cc1 [Compound 638b, 4′-(((7-fluoro-10-oxo-6-(piperazin-1-yl)-10H-pyrrolizino[1,2-b]quinolin-9-yl)oxy)methyl)-[1,1′-biphenyl]-2-carbonitrile] | 0.05 to 5 | 0.05 to 5 | 0.05 to 5 | 0.05 to 5 | 0.05 to 5 | 0.05 to 5 | 0.05 to 5
O=C1c2c(nc3cc(N4CCNCC4)c(F)cc3c2OCc2cc(C(F)(F)F)cc(C(F)(F)F)c2)-c2cccn21 [Compound 639b, 9-((3,5-bis(trifluoromethyl)benzyl)oxy)-7-fluoro-6-(piperazin-1-yl)-10H-pyrrolizino[1,2-b]quinolin-10-one] | 0.05 to 5 | 0.05 to 5 | 0.05 to 5 | 0.05 to 5 | 0.05 to 5 | 0.05 to 5 | 0.05 to 5
N#Cc1cc2c(=O)c3c(n(Cc4ccc(Cl)cc4)c2cc1N1CCNCC1)-c1cccn1C3=O [Compound 640a, 4-(4-Chlorobenzyl)-9,10-dioxo-6-(piperazin-1-yl)-4,10-dihydro-9H-pyrrolizino[1,2-b]quinoline-7-carbonitrile] | 0.05 to 5 | 0.05 to 5 | 0.05 to 5 | 0.05 to 5 | 0.05 to 5 | 0.05 to 5 | 0.05 to 5
N#Cc1cc2c(OCc3ccc(Cl)cc3)c3c(nc2cc1N1CCNCC1)-c1cccn1C3=O [Compound 640b, 9-((4-chlorobenzyl)oxy)-10-oxo-6-(piperazin-1-yl)-10H-pyrrolizino[1,2-b]quinoline-7-carbonitrile] | 0.05 to 5 | 0.05 to 5 | 0.05 to 5 | 0.05 to 5 | 0.05 to 5 | 0.05 to 5 | 0.05 to 5
N#Cc1ccc(Cn2c3c(c(=O)c4cc(C#N)c(N5CCNCC5)cc42)C(=O)n2cccc2-3)cc1 [Compound 641a, 4-(4-Cyanobenzyl)-9,10-dioxo-6-(piperazin-1-yl)-4,10-dihydro-9H-pyrrolizino[1,2-b]quinoline-7-carbonitrile] | 0.05 to 5 | 0.05 to 5 | 0.05 to 5 | 0.05 to 5 | 0.05 to 5 | 0.05 to 5 | 0.05 to 5
N#Cc1ccc(COc2c3c(nc4cc(N5CCNCC5)c(C#N)cc24)-c2cccn2C3=O)cc1 [Compound 641b, 9-((4-cyanobenzyl)oxy)-10-oxo-6-(piperazin-1-yl)-10H-pyrrolizino[1,2-b]quinoline-7-carbonitrile] | 0.05 to 5 | 0.05 to 5 | 0.05 to 5 | 0.05 to 5 | 0.05 to 5 | 0.05 to 5 | 0.05 to 5
N#Cc1cc2c(=O)c3c(n(Cc4ccc(C(F)(F)F)cc4)c2cc1N1CCNCC1)-c1cccn1C3=O [Compound 642a, 9,10-Dioxo-6-(piperazin-1-yl)-4-(4-(trifluoromethyl)benzyl)-4,10-dihydro-9H-pyrrolizino[1,2-b]quinoline-7-carbonitrile] | 0.05 to 5 | 0.05 to 5 | < 0.05 | 0.05 to 5 | 0.05 to 5 | 0.05 to 5 | 0.05 to 5
N#Cc1cc2c(OCc3ccc(C(F)(F)F)cc3)c3c(nc2cc1N1CCNCC1)-c1cccn1C3=O [Compound 642b, 10-oxo-6-(piperazin-1-yl)-9-((4-(trifluoromethyl)benzyl)oxy)-10H-pyrrolizino[1,2-b]quinoline-7-carbonitrile] | 0.05 to 5 | 0.05 to 5 | 0.05 to 5 | 0.05 to 5 | 0.05 to 5 | 0.05 to 5 | 0.05 to 5
N#Cc1cc2c(=O)c3c(n(Cc4ccc(-c5ccccc5)cc4)c2cc1N1CCNCC1)-c1cccn1C3=O [Compound 643a, 4-([1,1′-Biphenyl]-4-ylmethyl)-9,10-dioxo-6-(piperazin-1-yl)-4,10-dihydro-9H-pyrrolizino[1,2-b]quinoline-7-carbonitrile] | 0.05 to 5 | 5 to 20 | 0.05 to 5 | 0.05 to 5 | 0.05 to 5 | < 0.05 | 0.05 to 5
N#Cc1cc2c(OCc3ccc(-c4ccccc4)cc3)c3c(nc2cc1N1CCNCC1)-c1cccn1C3=O [Compound 643b, 9-([1,1′-biphenyl]-4-ylmethoxy)-10-oxo-6-(piperazin-1-yl)-10H-pyrrolizino[1,2-b]quinoline-7-carbonitrile] | 0.05 to 5 | < 0.05 | 0.05 to 5 | 0.05 to 5 | 0.05 to 5 | 0.05 to 5 | 0.05 to 5
N#Cc1ccccc1-c1ccc(Cn2c3c(c(=O)c4cc(C#N)c(N5CCNCC5)cc42)C(=O)n2cccc2-3)cc1 [Compound 644a, 4-((2′-Cyano-[1,1′-biphenyl]-4-yl)methyl)-9,10-dioxo-6-(piperazin-1-yl)-4,10-dihydro-9H-pyrrolizino[1,2-b]quinoline-7-carbonitrile] | 0.05 to 5 | 0.05 to 5 | 0.05 to 5 | 0.05 to 5 | 0.05 to 5 | 0.05 to 5 | 0.05 to 5
N#Cc1ccccc1-c1ccc(COc2c3c(nc4cc(N5CCNCC5)c(C#N)cc24)-c2cccn2C3=O)cc1 [Compound 644b, 9-((2′-cyano-[1,1′-biphenyl]-4-yl)methoxy)-10-oxo-6-(piperazin-1-yl)-10H-pyrrolizino[1,2-b]quinoline-7-carbonitrile] | 0.05 to 5 | 0.05 to 5 | 0.05 to 5 | 0.05 to 5 | 0.05 to 5 | 0.05 to 5 | 0.05 to 5
O=C1c2c(n(Cc3ccccc3Cl)c3cccc(Cl)c3c2=O)-c2cccn21 [Compound 645a, 8-Chloro-4-(2-chlorobenzyl)-9H-pyrrolizino[1,2-b]quinoline-9,10(4H)-dione] | 0.05 to 5 | 0.05 to 5 | < 0.05 | 0.05 to 5 | 0.05 to 5 | 0.05 to 5 | 0.05 to 5
